The subject of this experiment is A375-luc cells. The experiment is described as follows: A375 Cellular Proliferation Assay. It counts as cell-based. To be noted: Homo sapiens, A-375, 48 h; A375-luc melanoma cells (B-Raf V600E), 2 days incubation, BrightGlo luminescence; read-out: A375 CP IC50. On the procedure:
A375 Cellular Proliferation Assay
A375 is a melanoma cell line that harbors the B-Raf V600E mutation. A375-luc cells engineered to express luciferase are plated to 384-well white clear bottom plates as 1,500 cells/50 μl/well in DMEM containing 10% FBS. Compounds of the invention dissolved in 100% DMSO at appropriate concentrations are transferred to the cells by a robotic Pin Tool (100 nl). The cells are incubated for 2 days at […], then 25 μl of BrightGlo™ is added to each well and the plates are read by luminescence. The concentration of each compound for 50% inhibition (IC50) was calculated by non-linear regression using XL Fit data analysis software.

Broadly, the IC50 is the concentration that gives 50% inhibition.

Consider `CCCS(=O)(=O)Nc1ncc(F)c(-c2cc3cnc(NC)nc3n(C)c2=O)c1F` [Compound 10, N-(3,5-difluoro-4-(8-methyl-2-(methylamino)-7-oxo-7,8-dihydropyrido[2,3-d]pyrimidin-6-yl)pyridin-2-yl)propane-1-sulfonamide], for which the IC50 turned out to be 56 nM. With `CCCS(=O)(=O)Nc1ncc(F)c(Nc2nccnc2-c2cc(NCC(F)F)ncn2)c1F` [Compound 4, N-(4-(3-(6-(2,2-difluoroethylamino)pyrimidin-4-yl)pyrazin-2-ylamino)-3,5-difluoropyridin-2-yl)propane-1-sulfonamide], the IC50 stood at 12 nM. Take `CCCS(=O)(=O)Nc1ncc(F)c(Nc2nccnc2-c2cc(NCCS(C)(=O)=O)ncn2)c1F` [Compound 8, N-(3,5-difluoro-4-(3-(6-(2-(methylsulfonyl)ethylamino)pyrimidin-4-yl)pyrazin-2-ylamino)pyridin-2-yl)propane-1-sulfonamide]: the IC50 came to 191 nM. With `CCCS(=O)(=O)Nc1ncc(F)c(-c2cc3cnc(NCCC#N)cc3n(C)c2=O)c1F` [Compound 15, N-(4-(7-(2-cyanoethylamino)-1-methyl-2-oxo-1,2-dihydro-1,6-naphthyridin-3-yl)-3,5-difluoropyridin-2-yl)propane-1-sulfonamide], the IC50 turned out to be 12 nM.

Regarding `CCCS(=O)(=O)Nc1ncc(F)c(-c2cc3cnc(NC[C@H](C)NC(=O)OC)nc3n(C)c2=O)c1F` [Compound 12, (S)-methyl 1-(6-(3,5-difluoro-2-(propylsulfonamido)pyridin-4-yl)-8-methyl-7-oxo-7,8-dihydropyrido[2,3-d]pyrimidin-2-ylamino)propan-2-ylcarbamate], the IC50 came to 14 nM.

As to `CNc1ncc2cc(-c3c(F)cnc(NS(=O)(=O)CCC(F)(F)F)c3F)c(=O)n(C)c2n1` [Compound 14, N-(3,5-difluoro-4-(8-methyl-2-(methylamino)-7-oxo-7,8-dihydropyrido[2,3-d]pyrimidin-6-yl)pyridin-2-yl)-3,3,3-trifluoropropane-1-sulfonamide], the IC50 was found to be 130 nM. Turning to `CCCS(=O)(=O)Nc1ncc(F)c(Nc2nccnc2-c2cc(NCC(F)(F)F)ncn2)c1F` [Compound 7, N-(3,5-difluoro-4-(3-(6-(2,2,2-trifluoroethylamino)pyrimidin-4-yl)pyrazin-2-ylamino)pyridin-2-yl)propane-1-sulfonamide], the IC50 worked out at 49 nM. For the compound `CCCS(=O)(=O)Nc1nccc(-c2cc3cnc(NC)nc3n(C)c2=O)c1F` [Compound 11, N-(3-fluoro-4-(8-methyl-2-(methylamino)-7-oxo-7,8-dihydropyrido[2,3-d]pyrimidin-6-yl)pyridin-2-yl)propane-1-sulfonamide], the IC50 is 229 nM.

`CCCS(=O)(=O)Nc1ncc(F)c(Nc2nccnc2-c2cc(NC)ncn2)c1F` [Compound 5, N-(3,5-difluoro-4-(3-(6-(methylamino)pyrimidin-4-yl)pyrazin-2-ylamino)pyridin-2-yl)propane-1-sulfonamide]: the IC50 came to 31 nM. For the compound `CCCS(=O)(=O)Nc1ncc(F)c(-c2cc3cnc(NCC)cc3n(C)c2=O)c1F` [Compound 13, N-(4-(7-(Ethylamino)-1-methyl-2-oxo-1,2-dihydro-1,6-naphthyridin-3-yl)-3,5-difluoropyridin-2-yl)propane-1-sulfonamide], the IC50 was found to be 10 nM. The value for `CCCS(=O)(=O)Nc1ncc(F)c(Nc2nccnc2-c2cc(NCC)ncn2)c1Cl` [Compound 6, N-(3-chloro-4-(3-(6-(ethylamino)pyrimidin-4-yl)pyrazin-2-ylamino)-5-fluoropyridin-2-yl)propane-1-sulfonamide] was 121 nM; that for `CCCS(=O)(=O)Nc1ncc(F)c(Nc2nccnc2-c2cc(NCCC(F)(F)F)ncn2)c1F` [Compound 3, N-(3,5-difluoro-4-(3-(6-(3,3,3-trifluoropropylamino)pyrimidin-4-yl)pyrazin-2-ylamino)pyridin-2-yl)propane-1-sulfonamide] was 21 nM; that for `CCCS(=O)(=O)Nc1ncc(F)c(Nc2nccnc2-c2cc(NCC)ncn2)c1F` [Compound 1, N-(4-(3-(6-(Ethylamino)pyrimidin-4-yl)pyrazin-2-ylamino)-3,5-difluoropyridin-2-yl)propane-1-sulfonamide] was 13 nM. For `CCCS(=O)(=O)Nc1ncc(F)c(Nc2nccnc2-c2cc(NCCC#N)ncn2)c1F` [Compound 2, N-(4-(3-(6-(2-cyanoethylamino)pyrimidin-4-yl)pyrazin-2-ylamino)-3,5-difluoropyridin-2-yl)propane-1-sulfonamide], the IC50 was determined as 3 nM.

The values above are taken from US9181238B2, “N-(pyridin-2-yl)sulfonamides and compositions thereof as protein kinase inhibitors” (NOVARTIS AG, priority 2010, dated 2015).
